Measurements as given in publication PMC9377232 (Journal of Enzyme Inhibition and Medicinal Chemistry, 2022).
Marks after values point to notes of the source that are not given here.

Tests used:
stomach = test: Acute ulcerogenic side effect; type: in vivo; settings: mice; for Abou Zeit Har Score (ulcer index): intraperitoneal, indomethacin 5 mg/kg, celecoxib 20 mg/kg, means ± SD; for Gastric mucosa finding (ulcers) on examination: stomach examined after sacrifice
COX-1 mRNA = test: Real-time PCR of inflamed paw tissue, COX-1 gene expression; type: in vivo, Mouse; settings: paw tissue after formalin test; 2^-ΔΔCt method; means ± SD
LOX mRNA = test: Real-time PCR of inflamed paw tissue, LOX gene expression; type: in vivo, Mouse; settings: paw tissue after formalin test, 2^-ΔΔCt method, means ± SD
COX-2 mRNA = test: Real-time PCR of inflamed paw tissue, COX-2 gene expression; type: in vivo, Mouse; settings: paw tissue after formalin test; 2^-ΔΔCt method; means ± SD

## Cc1ccc(-c2cc(C(F)(F)F)nn2-c2ccc(S(N)(=O)=O)cc2)cc1 [Celecoxib]
stomach
  Abou Zeit Har Score (ulcer index): 0.6 ± 0.58
  Gastric mucosa finding (ulcers) on examination: preserved the integrity of the mucosa

## COc1ccc2c(c1)c(CC(=O)O)c(C)n2C(=O)c1ccc(Cl)cc1 [Indomethacin]
COX-1 mRNA
  COX-1 mRNA relative expression (real-time PCR): 0.82 ± 0.02
LOX mRNA
  LOX mRNA relative expression (real-time PCR): 1.32 ± 0.01
LOX mRNA; listed as indomethacin
  LOX mRNA relative expression (real-time PCR): not affected
stomach
  Abou Zeit Har Score (ulcer index): 11.2 ± 1.64
  Gastric mucosa finding (ulcers) on examination: large ulcers
COX-2 mRNA
  COX-2 mRNA relative expression (real-time PCR): 0.17 ± 0.01^a
